For three molecules, clonogenic growth, CC50 and IC50 results are on record in patent publication US11466023B2, “Combination of a Mcl-1 inhibitor and a standard of care treatment for hematologic cancers, uses and pharmaceutical compositions thereof” (LES LABORATOIRES SERVIER, priority 2017, dated 2022).

pIC50: −log10 of the molar value. Where two headings read alike, the source gives them in different places.

The test system of one data set is primary AML samples. To be noted: a subset of primary AML samples, 100 nM.
Data set [1] deals with mononuclear cells from AML patient samples. The experiment in a line: Cell viability assay (Sytox blue flow cytometry) in primary AML samples. To be noted: combination at 1:1 ratio, read-out: 50% lethal concentration (LC50). It is filed as cell-based, human. The protocol: Bone marrow samples from patients with AML were collected after informed consent in accordance with guidelines approved by The Alfred Hospital Human research ethics committee.
Mononuclear cells were isolated by density-gradient centrifugation Ficoll-Hypaque (GE Healthcare, Australia) density-gradient centrifugation and red cell lysis was performed using 0.156 M NH4Cl, 0.017 M Tris-HCl pH 7.2 as previously described (Rijal et al., Blood 2015, 125, 2815-2824). Cells were then re-suspended in phosphate-buffered saline containing 2% Fetal Bovine serum (FBS; Sigma, Australia). Mononuclear cells were then suspended in RPMI-1640 (GIBCO, Australia) medium containing penicillin and streptomycin (GIBCO) and heat inactivated fetal bovine serum 15% (Sigma). Cells were washed in phosphate-buffered saline (PBS) containing 2% FBS prior to use.
Freshly purified mononuclear cells from AML patient samples were adjusted to a concentration of 2.5×10^5/mL and 100 μL of cells aliquoted per well into 96 well plates (Sigma). Cells were then treated with idarubicin and Compound 2 over a […] concentration range from 1 nM to 10 μM for 48 hours. For combinations assays, drugs were added at a 1:1 ratio from 1 nM to 10 μM and cells were incubated at 37° C. 5% CO2. Cells were then stained with Sytox blue nucleic acid stain (Invitrogen, Australia) and fluorescence measured by flow cytometric analysis using the LSR-II Fortessa (Becton Dickinson, Australia). FACSDiva software was used for data collection, and FlowJo software for analysis. Blast cells were gated using forward and side scatter properties. Viable cells excluding Sytox blue were determined at 6 concentrations for each drug and the 50% lethal concentration (LC50, in μM) determined.
For orientation: In flow cytometry, cells or beads pass a laser one at a time.

Data set [2] relates to normal human CD34+ progenitor cells. The following applies: 100 nM.
The test system of a further data set is THP-1 AML cell line. The experiment in a line: Single agent cell viability (CellTiterGlo). The data set is classed as cell-based. The protocol: (§1) Cell lines were cultured at 37° C. in a humidified atmosphere containing 5% CO2 and expanded in T-150 flasks. […] In order to analyse the activity of the compounds as single agents, cells were seeded and treated with nine 2-fold serial dilutions of each compound dispensed individually directly into the cell assay plates. […] All the experiments were performed in triplicates. Luminescence was quantified on a multipurpose plate reader. Single agent IC50s were calculated using standard four-parametric curve fitting.

The subject of a further data set is OCI-AML3 AML cell line. The experiment in a line: Single agent cell viability (CellTiterGlo). It is filed as cell-based. The protocol: as §1
Background: ATP-based viability assays read luminescence as a measure of living cells.

The subject of the next data set is ML-2 AML cell line. The experiment in a line: Single agent cell viability (CellTiterGlo). It is filed as cell-based. The protocol:
as §1

In the next data set the test system is PL-21 AML cell line. The experiment in a line: Single agent cell viability (CellTiterGlo). The data set is classed as cell-based. How it is done:
as §1

For the next data set, the system named is EOL-1 AML cell line. The experiment in a line: Single agent cell viability (CellTiterGlo). The data set is classed as cell-based. The protocol:
as §1

The test system of another data set is KG1 AML cell line. Kind of data set: Single agent cell viability (CellTiterGlo). The data set is classed as cell-based. How it is done:
as §1

A further data set relates to Nomo-1 AML cell line. Kind of data set: Single agent cell viability (CellTiterGlo). It is filed as cell-based. How it is done: as §1
A further data set concerns MV4; 11 AML cell line. Kind of data set: Single agent cell viability (CellTiterGlo). It is filed as cell-based. How it is done:
as §1

The test system of a further data set is HL-60 AML cell line. The experiment in a line: Single agent cell viability (CellTiterGlo). It is filed as cell-based. How it is done:
as §1

Another data set has as its system MOLM-13 AML cell line. The experiment in a line: Single agent cell viability (CellTiterGlo). It is filed as cell-based. The protocol:
as §1

The test system of a further data set is KG1a AML cell line. The experiment in a line: Single agent cell viability (CellTiterGlo). It is filed as cell-based. How it is done: as §1
For a further data set, the system named is Kasumi-1 AML cell line. Kind of data set: Single agent cell viability (CellTiterGlo). The data set is classed as cell-based. How it is done: as §1
A further data set has as its system GDM-1 AML cell line. The experiment in a line: Single agent cell viability (CellTiterGlo). The data set is classed as cell-based. The protocol:
as §1

Setting [3] is: THP-1, single agent, 3 days incubation, CellTiterGlo, read-out: IC50.
Setting [4] is: OCI-AML3, single agent, 3 days incubation, CellTiterGlo, read-out: IC50.
Setting [5] is: ML-2, single agent, 3 days incubation, CellTiterGlo, read-out: IC50.
Where [6] appears, read: PL-21, single agent, 3 days incubation, CellTiterGlo, read-out: IC50.
Setting [7] is: EOL-1, single agent, 3 days incubation, CellTiterGlo, read-out: IC50.
The mark [8] stands for this setting: KG1, single agent, 3 days incubation, CellTiterGlo, read-out: IC50.
The mark [9] stands for this setting: Nomo-1, single agent, 3 days incubation, CellTiterGlo, read-out: IC50.
[10] abbreviates: MV4, 11, single agent, 3 days incubation, CellTiterGlo, read-out: IC50.
Where [11] appears, read: HL-60, single agent, 3 days incubation, CellTiterGlo, read-out: IC50.
Where [12] appears, read: MOLM-13, single agent, 3 days incubation, CellTiterGlo, read-out: IC50.
Setting [13] is: KG1a, single agent, 3 days incubation, CellTiterGlo, read-out: IC50.
Where [14] appears, read: Kasumi-1, single agent, 3 days incubation, CellTiterGlo, read-out: IC50.
The mark [15] stands for this setting: GDM-1, single agent, 3 days incubation, CellTiterGlo, read-out: IC50.

For the molecule `Cc1c(-c2c(-c3ccc(F)o3)sc3ncnc(O[C@H](Cc4ccccc4OCc4ccnn4CC(F)(F)F)C(=O)O)c23)ccc(OCCN2CCN(C)CC2)c1Cl` [Compound 2, (2R)-2-{[(5Sa)-5-{3-chloro-2-methyl-4-[2-(4-methylpiperazin-1-yl)ethoxy]phenyl}-6-(5-fluorofuran-2-yl)thieno[2,3-d]pyrimidin-4-yl]oxy}-3-(2-{[1-(2,2,2-trifluoroethyl)-1H-pyrazol-5-yl]methoxy}phenyl)propanoic acid], the clonogenic growth result (in the data set with primary AML samples; in data set [2]) was “resistant” throughout. Besides, the CC50 in data set [1] (Patient AML 6200840, 48 hours) came to 0.227 µM; in data set [1] (Patient AML AH0131936, 48 hours), 10.7 µM; in data set [1] (Patient AML AH0465385, 48 hours), 23 µM; in [1] (Patient AML AH0607688, 48 hours), 22.9 µM; in data set [1] (Patient AML AH0979006, 48 hours), 0.0618 µM; in [1] (Patient AML AH1081582, 48 hours) it was 4.36 µM. The CC50 in data set [1] (Patient AML AH1228742, 48 hours) stood at 5360 µM; in data set [1] (Patient AML AH6120264, 48 hours), 0.679 µM; in [1] (Patient AML AH6181414_2, 48 hours) it was 15.5 µM; in data set [1] (Patient AML AH6202849, 48 hours), 13 µM; in [1] (Patient AML AH6208160, 48 hours), 21.6 µM; in data set [1] (Patient AML AH6208654, 48 hours), 9.42 µM. The CC50 amounted to 0.0556 µM in data set [1] (Patient AML AH6210946, 48 hours); 0.000868 µM in data set [1] (Patient AML AH6214498, 48 hours); 1.16 µM in [1] (Patient AML AH6217528, 48 hours); 38.8 µM in data set [1] (Patient AML AH6219953, 48 hours); 0.21 µM in [1] (Patient AML AH6220847, 48 hours); 0.148 µM in [1] (Patient AML AH6223646, 48 hours). The CC50 in data set [1] (Patient AML AH6224104, 48 hours) was found to be 608 µM; in data set [1] (Patient AML AH6229985, 48 hours), 0.00483 µM; in data set [1] (Patient AML AH6607085, 48 hours), 0.143 µM; in data set [1] (Patient AML AH6615742, 48 hours) it was 14.5 µM; in data set [1] (Patient AML AH6627892, 48 hours), 14.2 µM. Further, the pIC50 (in general, −log10 of the IC50, conventionally taken in molar units) was 7.29 in the data set on THP-1 AML cell line (setting [3]); 6.47 with OCI-AML3 AML cell line (setting [4]); 7.66 in the data set with ML-2 AML cell line (setting [5]); 6.62 in the data set on PL-21 AML cell line (setting [6]); 8.70 in the data set with EOL-1 AML cell line (setting [7]); 6.38 in the data set with KG1 AML cell line (setting [8]). Moreover, the pIC50 is 7.66 in the data set with Nomo-1 AML cell line (setting [9]); 9.00 with MV4; 11 AML cell line (setting [10]); 7.07 in the data set with HL-60 AML cell line (setting [11]); 8.40 in the data set with MOLM-13 AML cell line (setting [12]); 5.66 with KG1a AML cell line (setting [13]); 7.18 in the data set with Kasumi-1 AML cell line (setting [14]). Also, the pIC50 in the data set on GDM-1 AML cell line (setting [15]) is 7.57.
As for `COc1ccccc1-c1nccc(COc2ccccc2C[C@@H](Oc2ncnc3sc(-c4ccc(F)cc4)c(-c4ccc(OCCN5CCN(C)CC5)c(Cl)c4C)c23)C(=O)O)n1` [Compound 1, (2R)-2-{[(5Sa)-5-{3-chloro-2-methyl-4-[2-(4-methylpiperazin-1-yl)ethoxy]phenyl}-6-(4-fluorophenyl)thieno[2,3-d]pyrimidin-4-yl]oxy}-3-(2-{[2-(2-methoxyphenyl)pyrimidin-4-yl]methoxy}phenyl)propanoic acid], the pIC50 was 7.77 in the data set on THP-1 AML cell line (setting [3]); 6.84 in the data set on OCI-AML3 AML cell line (setting [4]); 8.30 with ML-2 AML cell line (setting [5]); 7.19 in the data set with PL-21 AML cell line (setting [6]); 9.00 with EOL-1 AML cell line (setting [7]); 6.41 in the data set on KG1 AML cell line (setting [8]). Further, the pIC50 was 7.89 with Nomo-1 AML cell line (setting [9]); 9.00 with MV4; 11 AML cell line (setting [10]); 7.60 in the data set on HL-60 AML cell line (setting [11]); 8.70 in the data set on MOLM-13 AML cell line (setting [12]); 5.70 with KG1a AML cell line (setting [13]); 7.48 in the data set with Kasumi-1 AML cell line (setting [14]). Moreover, the pIC50 with GDM-1 AML cell line (setting [15]) was 8.10.
Consider `Nc1ncn([C@H]2C[C@H](O)[C@@H](CO)O2)c(=O)n1` [Decitabine, decitabine], for which the pIC50 with THP-1 AML cell line (Homo sapiens, THP-1, 72 h) was under 4.52; in the data set on OCI-AML3 AML cell line (Homo sapiens, OCI-AML-3, 72 h) it was 5.10; in the data set on ML-2 AML cell line (72 h), 4.85; in the data set with PL-21 AML cell line (PL-21, 72 h), under 5.30; in the data set with EOL-1 AML cell line (Homo sapiens, EOL1, 72 h), 6.31; in the data set on KG1 AML cell line (72 h) it was 5.24. For the same molecule, the pIC50 is under 5.30 with Nomo-1 AML cell line (Homo sapiens, NOMO-1, 72 h); 6.40 with MV4; 11 AML cell line (Homo sapiens, MV4-11, 72 h); 4.85 with HL-60 AML cell line (Homo sapiens, HL-60, 72 h); 6.40 in the data set on MOLM-13 AML cell line (Homo sapiens, MOLM-13, 72 h); 4.85 in the data set on KG1a AML cell line (Homo sapiens, KG-1a, 72 h); 5.26 with Kasumi-1 AML cell line (Homo sapiens, Kasumi 1, 72 h). The molecule further showed a pIC50 in the data set with GDM-1 AML cell line (Homo sapiens, GDM-1, 72 h) of 4.39.
